Source: patent publication US20130149415A1, “Use of manganese for enhancing the growth of L.casei in mixed cultures” (priority 2010, published 2013)
Where two headings read alike, the source gives them in different places.

Tests used:
[1] = test system: Streptococcus thermophilus and Lactobacillus bulgaricus; assay: Acidification kinetics of the co-cultures (monitoring of yogurt bacteria growth by pH decrease); assay type: cell-based
Source text: The populations of Streptococcus thermophilus and Lactobacillus bulgaricus were not evaluated by cell counts, but by the evaluation of the acidification kinetics. It is well known that Streptococcus thermophilus and Lactobacillus bulgaricus grow faster in milk than L. casei and their lactic acid productions are directly correlated to their growth. Also, in the present invention, the monitoring of acidification corresponds to the monitoring of Streptococcus thermophilus and Lactobacillus bulgaricus growth.

[2] = test system: Lactobacillus casei subsp. rhamnosus DN-116 010; details: for paracasei ou rhamnosus count. num. Mn/count. J + 1 / Count ufc/ml at +10° C. Count. J + 1 paracasei ou rhamnosus: 543 043 + 116 010
Procedure: (§1) The population of Lactobacillus casei subsp. paracasei, was evaluated at J+3 by cell count analysis. Cell count analysis was performed by serial dilutions of the fermented medium with tryptone salt solution, and plating on Petri dishes with appropriate agar medium: MRS Agar containing 1.5 g/l of BactoOXGALL (DIFCO) for Lactobacillus casei.
(§2) Petri dishes were incubated at 37° C. during 96 H in anaerobic conditions (5% CO2).
(§3) The same experimentations as in Example 1 were performed with co-cultures of Lactobacillus casei subsp. paracasei DN-114 121 or Lactobacillus casei subsp. rhamnosus DN-116 010 with the yogurt ferment DN 543 043 described above, or the yogurt ferment DN 522 044, consisting of a strain of Streptococcus thermophilus (DN-001 143), Streptococcus thermophilus (DN-001 257) and a strain of Lactobacillus lactis (DN-111 224).
Lactobacillus casei subsp. rhamnosus DN-116 010 was inoculated at 5.8 10^7. CFU/ml.
DN 543 043 was inoculated at 2 10^6 CFU/ml for Streptococcus thermophilus DN-001 171; and 7 10^4 CFU/ml for Lactobacillus bulgaricus DN-100 182.
(§4) Fermentation was conducted at 36° C., and monitored by measuring the decrease of pH in the culture medium. Fermentation was stopped by transfering the preparation at 4° C. when a target pH of about 4.6 was reached.
(§5) The population of Lactobacillus casei subsp. paracasei was evaluated after 1 day (J+1) incubation at 10° C.

[3] = test system: Lactobacillus casei subsp. paracasei DN-114 121; assay: Cell count of Lactobacillus casei subsp. paracasei co-cultured with yogurt ferments in dairy medium; assay type: cell-based; details: for ratio count.Mn/count. J + 1 / ratio count.Mn/count. J + 3: Mn 20 mg/L vs without Mn; for Count ufc/ml at +10° C. J + 1 / Count ufc/ml at +10° C. J + 3: Mn 20 mg/L
Procedure: Medium A and medium B are inoculated with Lactobacillus casei subsp. paracasei DN-114 121 (3.80×10^7 CFU/ml), and a yogurt ferment (DN 542 142) consisting of: Streptococcus thermophilus DN-001 640 (10^6 CFU/ml), Streptococcus thermophilus DN-001 336 (2. 10^6 CFU/ml), Streptococcus thermophilus DN-001 236 (7. 10^5 CFU/ml) and Lactobacillus bulgaricus DN-100 290 (10^5 CFU/ml).
Fermentation was conducted at 36° C., and monitored by measuring the decrease of pH in the culture medium. Fermentation was stopped by transferring the preparation at 4° C. when a target pH of 4.6 was reached.
as §1, §2
Two yogurt ferments were tested in combination with Lactobacillus casei: DN 542 142 described above, and DN 543 043, consisting of a strain of Streptococcus thermophilus (DN-.001 171) and a strain of Lactobacillus bulgaricus (DN-100 182).
Lactobacillus casei subsp. paracasei DN-114 121 was inoculated at 3.8 10^7 CFU/ml.
DN 542 142 was inoculated at 10^6 CFU/ml for Streptococcus thermophilus DN-001 640; 2.10^6 CFU/ml for Streptococcus thermophilus DN-001 336; 7.10^5 CFU/ml for Streptococcus thermophilus DN-001 236, and 10^5 CFU/ml for Lactobacillus bulgaricus DN-100 290.
DN 543 043 was inoculated at 2.10^6 CFU/ml for Streptococcus thermophilus DN-001 171; and 7.10^4 CFU/ml for Lactobacillus bulgaricus DN-100 182.
Fermentation was conducted at 36° C., and monitored by measuring the decrease of pH in the culture medium. Fermentation was stopped by transferring the preparation at 4° C. when a target pH of about 4.6 (in the case of the co-culture with the yogurt ferment DN 542 142), or of about 4.45 (in the case of the co-culture with the yogurt ferment DN 543 043) was reached.
The population of Lactobacillus casei subsp. paracasei was evaluated after 1 day (J+1) and 3 days (J+3) incubation at 10° C.
as §3, §4, §5

[4] = addition of 20 mg/l of manganese, Example 1 co-cultures (DN 542 142 or DN 543 043 + DN-114 121)

## monohydrate manganese sulfate [Mn]
[1]; Example 2 co-cultures, 0.5, 20, 60 mg/l manganese
  effect on the acidification kinetics of the co-cultures: no effect
[1]; [4]
  effect on the acidification kinetics of the co-cultures: no effect
[2]; 20 mg/L Mn vs 0 mg/L Mn
  paracasei ou rhamnosus count. num. Mn/count. J + 1: 1.3
[2]; 20 mg/L Mn
  Count ufc/ml at +10° C. Count. J + 1 paracasei ou rhamnosus: 3.20E+08 ufc/ml
[2]; 60 mg/L Mn vs 0 mg/L Mn
  paracasei ou rhamnosus count. num. Mn/count. J + 1: 1.3
[2]; 60 mg/L Mn
  Count ufc/ml at +10° C. Count. J + 1 paracasei ou rhamnosus: 3.30E+08 ufc/ml
[2]; Example 2, Lactobacillus casei ssp rhamnosus, 20, 60 mg/l manganese
  effect on the population of the bacteria of the L. casei group: selectively increases the population
[3]; 522 044 + 114 121, 20 mg/L Mn vs 0 mg/L Mn
  paracasei ou rhamnosus count. num. Mn/count. J + 1: 2.3
[3]; 522 044 + 114 121, 20 mg/L Mn
  Count ufc/ml at +10° C. Count. J + 1 paracasei ou rhamnosus: 3.25E+08 ufc/ml
[3]; 542 142 + 114 121
  ratio count.Mn/count. J + 1: 1.9
  ratio count.Mn/count. J + 3: 1.7
  Count ufc/ml at +10° C. J + 1: 1.15E+08 ufc/ml
  Count ufc/ml at +10° C. J + 3: 1.61E+08 ufc/ml
[3]; 543 043 + 114 121, 0.5 mg/L Mn vs 0 mg/L Mn
  paracasei ou rhamnosus count. num. Mn/count. J + 1: 2.2
[3]; 543 043 + 114 121, 0.5 mg/L Mn
  Count ufc/ml at +10° C. Count. J + 1 paracasei ou rhamnosus: 2.99E+08 ufc/ml
[3]; 543 043 + 114 121, 20 mg/L Mn vs 0 mg/L Mn
  paracasei ou rhamnosus count. num. Mn/count. J + 1: 2.3
[3]; 543 043 + 114 121, 20 mg/L Mn
  Count ufc/ml at +10° C. Count. J + 1 paracasei ou rhamnosus: 3.13E+08 ufc/ml
[3]; 543 043 + 114 121, 60 mg/L Mn vs 0 mg/L Mn
  paracasei ou rhamnosus count. num. Mn/count. J + 1: 2.4
[3]; 543 043 + 114 121, 60 mg/L Mn
  Count ufc/ml at +10° C. Count. J + 1 paracasei ou rhamnosus: 3.25E+08 ufc/ml
[3]; 543 043 + 114 121
  ratio count.Mn/count. J + 1: 1.9
  ratio count.Mn/count. J + 3: 2.1
  Count ufc/ml at +10° C. J + 1: 2.70E+08 ufc/ml
  Count ufc/ml at +10° C. J + 3: 3.00E+08 ufc/ml
[3]; Example 2, Lactobacillus casei ssp paracasei, 0.5, 20, 60 mg/l manganese
  effect on the population of the bacteria of the L. casei group: selectively increases the population
[3]; [4]
  effect on the population of Lactobacillus casei: selectively increases the population of Lactobacillus casei
